Test results reported in US20080131920A1, “Ion flux in biological processes, and methods related thereto” (priority 2005, published 2008).

Test system: axons of the tail
Assay: Axonal patterning in regenerating tails (acetylated α-tubulin immunohistochemistry)
Design: species or system Xenopus laevis
Settings: in vivo
Source text: Finally, to characterize downstream morphogenetic consequences of V-ATPase abrogation, we traced axonal paths during regeneration using immunohistochemistry with an acetylated α-tubulin antibody. In normally regenerating tails, axons appear increased in number (relative to the uncut portion of tail) and they extend into the bud in bundles parallel to the main anterior-posterior axis of the tail (FIG. 14H; green arrows indicate normal axon patterning, while black arrows indicate abnormal axon number and/or location). […] Moreover, in normal refractory tails, there is no apparent increase in the number of axons, and those that are present terminate well anterior of the tail tip (FIG. 14K). […]
Axon and muscle marker detection was performed using fluorescent secondary antibodies. […] Fluorescence images were collected on a Leica TCS SPZ confocal imaging system; λex=543. […] Background autofluorescence was removed by segmentation of the original fluorescence images. The brightest pixels could readily be selected such that the selection best represented the pattern of axons. […]

In the case of `C/C=C/[C@H]1O[C@@](O)([C@@H](C)[C@H](O)[C@H](C)[C@H]2OC(=O)/C(OC)=C/C(C)=C/[C@@H](C)[C@@H](O)[C@@H](CC)[C@@H](O)[C@H](C)C/C(C)=C/C=C/[C@@H]2OC)C[C@@H](O)[C@@H]1C` [concanamycin], the “axon patterning in V-ATPase-inhibited tails” value is reported as “axon patterning is abnormal”.
